# Reference: PMC6934184, “Selective DNA-PKcs inhibition extends the therapeutic index of localized radiotherapy and chemotherapy” (The Journal of Clinical Investigation, 2019)
# Molecular target: T1, PTK2 (FAK) (Homo sapiens, UniProt Q05397)
# T1 construct: purchased Thermo Fisher Scientific (Life Technologies) SelectScreen
# Experiment: SelectScreen Z'LYTE
# Type: biochemical
# Summary of the method: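 Percent values come from Thermo SelectScreen profiling of NU5455, combining activity and binding assays. CSF1R was run in Z'LYTE format at Km app ATP, and CAMK1 in Adapta format with ATP listed at 10.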
# T1 sequence (Q05397 whole entry): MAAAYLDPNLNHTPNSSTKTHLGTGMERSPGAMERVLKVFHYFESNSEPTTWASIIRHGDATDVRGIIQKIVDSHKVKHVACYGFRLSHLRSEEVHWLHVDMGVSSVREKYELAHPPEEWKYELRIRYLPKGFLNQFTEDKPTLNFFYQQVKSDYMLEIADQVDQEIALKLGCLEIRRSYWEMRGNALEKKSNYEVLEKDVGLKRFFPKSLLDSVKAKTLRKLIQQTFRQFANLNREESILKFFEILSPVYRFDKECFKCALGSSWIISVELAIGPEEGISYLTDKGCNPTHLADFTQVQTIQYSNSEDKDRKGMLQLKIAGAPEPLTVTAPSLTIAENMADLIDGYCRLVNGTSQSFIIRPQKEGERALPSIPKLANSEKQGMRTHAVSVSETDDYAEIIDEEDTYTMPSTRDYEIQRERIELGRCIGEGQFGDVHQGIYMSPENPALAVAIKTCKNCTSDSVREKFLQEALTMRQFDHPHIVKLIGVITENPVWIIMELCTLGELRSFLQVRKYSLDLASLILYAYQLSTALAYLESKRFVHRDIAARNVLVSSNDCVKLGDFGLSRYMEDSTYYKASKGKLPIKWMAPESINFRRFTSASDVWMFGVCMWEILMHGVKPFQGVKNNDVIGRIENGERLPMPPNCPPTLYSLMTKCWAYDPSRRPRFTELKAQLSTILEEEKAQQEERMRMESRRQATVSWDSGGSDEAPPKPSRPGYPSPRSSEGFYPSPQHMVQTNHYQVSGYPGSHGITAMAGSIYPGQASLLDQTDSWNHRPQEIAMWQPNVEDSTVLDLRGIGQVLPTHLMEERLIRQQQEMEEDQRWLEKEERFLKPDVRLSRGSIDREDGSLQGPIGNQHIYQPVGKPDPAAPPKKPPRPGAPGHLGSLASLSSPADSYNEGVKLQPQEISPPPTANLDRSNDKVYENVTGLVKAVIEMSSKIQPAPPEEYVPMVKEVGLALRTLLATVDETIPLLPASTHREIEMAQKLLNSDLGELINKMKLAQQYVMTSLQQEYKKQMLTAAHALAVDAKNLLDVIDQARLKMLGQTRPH
structure (smiles),measurement,value
CN(C(=O)CN1CCOCC1)c1ccc2sc3c(-c4cccc5c(=O)cc(N6CC7CCC(C6)O7)oc45)cccc3c2c1 [NU5455],inhibition at 1 µM,5.1%
